Measured values reported in patent publication US20100317607A1, “USE OF COMPOUNDS FOR PREPARING ANTI-TUBERCULOSIS AGENTS” (INFECTIOUS DISEASE RESEARCH INSTITUTE, priority 2007, published 2010).
In brackets after ≈: the same amount, converted by molar mass. Counter-ions that a name gives are not always drawn.

Tested on: H37Rv strain of M. tuberculosis
Experiment: Alamar Blue Susceptibility Test (MABA)
Assay type: cell-based
Settings: H37Rv strain of M. tuberculosis; Alamar Blue

SMILES | MABA (TB growth inhibition, colourimetric assay)
Nc1nc(N2CCCCC2)nc2ccccc12 [compound 1, 2-(Piperidin-1-yl)quinazolin-4-amine, reference compound] | −

Same assay, conditions: Mycobacterium tuberculosis; H37Rv strain of M. tuberculosis; Alamar Blue; read-out: MABA (TB growth inhibition, colourimetric assay)

SMILES | MIC
COc1cc2nc(N3CCCCC3)nc(NCc3ccc(F)cc3)c2cc1OC [Compound 150, N-(4-Fluorobenzyl)-6,7-dimethoxy-2-(piperidin-1-yl)quinazolin-4-amine hydrochloride] | 10 to 50 µM
Fc1ccc(CNc2nc(N3CCCC3)nc3ccccc23)cc1 [Compound 172, N-(4-Fluorobenzyl)-2-(pyrrolidin-1-yl)quinazolin-4-amine] | < 10 µM
CCC(CC)(Nc1nc(N2CCCCC2)nc2ccccc12)c1ccccc1 [Compound 138, N-(3-Phenylpentan-3-yl)-2-(piperidin-1-yl)quinazolin-4-amine] | < 10 µM
COC(=O)[C@H](Cc1ccccc1)Nc1nc(N2CCCCC2)nc2ccccc12 [Compound 176, (S)-Methyl 3-phenyl-2-(2-(piperidin-1-yl)quinazolin-4-ylamino)propanoate] | 50 to 128 µM (≈ 19.5 to 50 µg/mL)
OC[C@@H]1CCCN1c1nc(NCc2ccc(F)cc2)c2ccccc2n1 [Compound 198, (S)-(1-(4-(4-Fluorobenzylamino)quinazolin-2-yl)pyrrolidin-2-yl)methanol] | 50 to 128 µM (≈ 17.6 to 45.1 µg/mL)
Cc1ccc(C(C)(C)Nc2nc(N3CCCC3)nc3ccccc23)cc1 [Compound 103, 2-(Pyrrolidin-1-yl)-N-(2-p-tolylpropan-2-yl)quinazolin-4-amine] | 10 to 50 µM (≈ 3.46 to 17.3 µg/mL)
Fc1ccc(CNc2nc(NCc3ccccc3)c3ccccc3n2)cc1 [Compound 126, N^4-Benzyl-N^2-(4-fluorobenzyl)quinazoline-2,4-diamine hydrochloride] | 10 to 50 µM
Clc1ccc(N2CCN(c3nc(N4CCCCC4)nc4ccccc34)CC2)cc1 [Compound 89, 4-(4-(4-Chlorophenyl)piperazin-1-yl)-2-(piperidin-1-yl)quinazoline] | 10 to 50 µM (≈ 4.08 to 20.4 µg/mL)
O=C1CCN(c2nc(NCc3ccccc3)c3ccccc3n2)CC1 [Compound 139, 1-(4-(Benzylamino)quinazolin-2-yl)piperidin-4-one] | < 10 µM
COC[C@@H]1CCCN1c1nc(NCc2ccccc2)c2ccccc2n1 [Compound 178, (S)—N-Benzyl-2-(2-(methoxymethyl)pyrrolidin-1-yl)quinazolin-4-amine] | 50 to 128 µM (≈ 17.4 to 44.6 µg/mL)
O=C(C1CC1)N1CCN(c2nc(NCc3ccc(F)cc3)c3ccccc3n2)CC1 [Compound 202, Cyclopropyl(4-(4-(4-fluorobenzylamino)quinazolin-2-yl)piperazin-1-yl)methanone hydrochloride] | 50 to 128 µM
CC(C)(C)OC(=O)N1CCCN(c2nc(NCc3ccccc3)c3ccccc3n2)CC1 [Compound 55, tert-Butyl 4-(4-(benzylamino)quinazolin-2-yl)-1,4-diazepane-1-carboxylate] | 10 to 50 µM (≈ 4.34 to 21.7 µg/mL)
Clc1cccc2nc(N3CCCCC3)nc(NCc3ccccc3)c12 [Compound 107, N-Benzyl-5-chloro-2-(piperidin-1-yl)quinazolin-4-amine] | 10 to 50 µM (≈ 3.53 to 17.6 µg/mL)
CCOC(=O)CN1CCN(c2nc(NCc3ccccc3)c3ccccc3n2)CC1 [Compound 27, Ethyl 2-(4-(4-(benzylamino)quinazolin-2-yl)piperazin-1-yl)acetate] | 50 to 128 µM (≈ 20.3 to 51.9 µg/mL)
FC(F)(F)c1ccc(CNc2nc(N3CCOCC3)nc3ccccc23)cc1 [Compound 77, 2-Morpholino-N-(4-(trifluoromethyl)benzyl)quinazolin-4-amine] | 10 to 50 µM (≈ 3.88 to 19.4 µg/mL)
Clc1ccc(CNc2nc(N3CCCCC3)c3ccccc3n2)cc1 [Compound 110, N-(4-Chlorobenzyl)-4-(piperidin-1-yl)quinazolin-2-amine hydrochloride] | 10 to 50 µM
COc1ccccc1CNc1nc(N2CCCCC2)nc2ccccc12 [Compound 81, N-(2-Methoxybenzyl)-2-(piperidin-1-yl)quinazolin-4-amine hydrochloride] | 10 to 50 µM

SMILES | MIC
Fc1ccc(C2(Nc3nc(N4CCC(F)(F)CC4)nc4ccccc34)CC2)cc1 [Compound 153, 2-(4,4-Difluoropiperidin-1-yl)-N-(1-(4-fluorophenyl)cyclopropyl)quinazolin-4-amine] | 50 to 128 µM (≈ 19.9 to 51 µg/mL)
Clc1ccc(C2(Nc3nc(N4CCCC4)nc4ccccc34)CC2)cc1 [Compound 142, N-(1-(4-Chlorophenyl)cyclopropyl)-2-(pyrrolidin-1-yl)quinazolin-4-amine hydrochloride] | 10 to 50 µM
Nc1nc(NCc2ccccc2)c2ccccc2n1 [compound 3, N^4-Benzylquinazoline-2,4-diamine, reference compound] | 50 to 128 µM (≈ 12.5 to 32 µg/mL)
COC[C@@H]1CCCN1c1nc(NCc2ccc(F)cc2)c2ccccc2n1 [Compound 199, (S)—N-(4-Fluorobenzyl)-2-(2-(methoxymethyl)pyrrolidin-1-yl)quinazolin-4-amine] | 10 to 50 µM (≈ 3.66 to 18.3 µg/mL)
Oc1ccc(CNc2nc(NCc3ccc(F)cc3)nc3ccccc23)cc1 [Compound 165, 4-((2-(4-Fluorobenzylamino)quinazolin-4-ylamino)methyl)phenol] | 10 to 50 µM (≈ 3.74 to 18.7 µg/mL)
c1ccc2c(NCc3ccsc3)nc(N3CCCCC3)nc2c1 [Compound 191, 2-(Piperidin-1-yl)-N-(thiophen-3-ylmethyl)quinazolin-4-amine] | 10 to 50 µM (≈ 3.24 to 16.2 µg/mL)
Cc1ccccc1CNc1nc(N2CCCCC2)nc2ccccc12 [Compound 104, N-(2-Methylbenzyl)-2-(piperidin-1-yl)quinazolin-4-amine hydrochloride] | 10 to 50 µM
c1ccc(C(Nc2nc(N3CCCCC3)nc3ccccc23)c2ccccc2)cc1 [Compound 50, N-Benzhydryl-2-(piperidin-1-yl)quinazolin-4-amine] | 10 to 50 µM (≈ 3.95 to 19.7 µg/mL)
CCCNc1nc(NCc2ccccc2)c2ccccc2n1 [Compound 67, N^4-Benzyl-N^2-propylquinazoline-2,4-diamine] | 10 to 50 µM (≈ 2.92 to 14.6 µg/mL)
Fc1ccc(CNc2nc(N3CCCCC3)nc3cc(F)ccc23)cc1 [Compound 155, 7-Fluoro-N-(4-fluorobenzyl)-2-(piperidin-1-yl)quinazolin-4-amine] | < 10 µM
Fc1ccc(CNc2nc(NCCN3CCCCC3)nc3ccccc23)cc1 [Compound 209, N^4-(4-Fluorobenzyl)-N^2-(2-(piperidin-1-yl)ethyl)quinazoline-2,4-diamine hydrochloride] | 50 to 128 µM
CC(C)C(=O)N1CCN(c2nc(NCc3ccccc3)c3ccccc3n2)CC1 [Compound 56, 1-(4-(4-(Benzylamino)quinazolin-2-yl)piperazin-1-yl)-2-methylpropan-1-one] | 50 to 128 µM (≈ 19.5 to 49.9 µg/mL)
c1ccc(C2(Nc3nc(N4CCCCC4)nc4ccccc34)CC2)cc1 [Compound 122, N-(1-Phenylcyclopropyl)-2-(piperidin-1-yl)quinazolin-4-amine] | 10 to 50 µM (≈ 3.44 to 17.2 µg/mL)
Clc1ccc(CNc2nc(N3CCOCC3)nc3ccccc23)cc1 [Compound 74, N-(4-Chlorobenzyl)-2-morpholinoquinazolin-4-amine] | 10 to 50 µM (≈ 3.55 to 17.7 µg/mL)
CCOC(=O)CNc1nc(NCc2ccc(F)cc2)c2ccccc2n1 [Compound 206, Ethyl 2-(4-(4-fluorobenzylamino)quinazolin-2-ylamino)acetate hydrochloride] | 50 to 128 µM
Cc1ccc(C(C)(C)Nc2nc(N3CCCCC3)nc3ccccc23)cc1 [Compound 102, 2-(Piperidin-1-yl)-N-(2-p-tolylpropan-2-yl)quinazolin-4-amine] | 10 to 50 µM (≈ 3.61 to 18 µg/mL)
CCN(CC)c1nc(NCc2ccccc2)c2ccccc2n1 [Compound 25, N^4-Benzyl-N^2,N^2-diethylquinazoline-2,4-diamine] | 10 to 50 µM (≈ 3.06 to 15.3 µg/mL)
